# Source: patent publication US6797698B1, “Method of treating prolonged critical illness and other conditions having a similar neuroendocrine pattern” (K.U. Leuven Research & Development, priority 1998, dated 2004)
# Columns and labels:
# [1] = tested on: catabolism; assay: LHRH effect on catabolism resulting from testosterone deficiency; details: in vivo
# Text: Optionally the administration of GHRP and TRH can be supplemented with Luteinizing Hormone Releasing Hormone (LHRH). A shortage of pulsatile LH secretion can lead to testosterone deficiency in males, which in turn can cause an increase in catabolism.
# [2] = tested on: GH secretion and GH-dependent parameters; assay: 21 h (21-45 h) infusion in protracted critical illness: GH secretion and GH-dependent parameters; type: in vivo, human
# Description: The inventors have also shown that infusion of GHRP-2 for 21 h in this condition increases pulsatile GH secretion >6-fold, associated with increases in IGF-I, IGFBP-3 and ALS. […] This observation strongly favors the presence of active feedback inhibition preventing overcorrection of the somatotropic axis with this strategy. Treatment with high doses of recombinant human GH has recently shown to increase morbidity and mortality of critical illness. The inability to overtreat with GH-secretagogues is an important advantage over exogenous GH, especially in the vulnerable critically ill elderly.
# [3] = tested on: TSH secretion and thyroid hormone levels; assay: 21 h (21-45 h) infusion in protracted critical illness: TSH secretion and thyroid hormones; type: in vivo, human; details: 21 h infusion
compound,measurement,setting,value
"Luteinizing Hormone Releasing Hormone (QHWSYGLRPG; Gonadoliberin-1; UniProt P01148 24-33, looked up) [LHRH, Luteinizing Hormone Releasing Hormone, optional supplement to GHRP and TRH]",effect on catabolism that results from testosterone deficiency (in words),[1],no effect
"NC(=O)[C@@H]1CCCN1C(=O)[C@H](Cc1cnc[nH]1)NC(=O)[C@@H]1CCC(=O)N1 [TRH, Thyroid Releasing Hormone]",GH-dependent parameters (in words),[2]; 21 h infusion,did not alter
same,TSH secretion (in words),[3],increasing
same,thyroid hormone levels (in words),[3],increasing
GHRP-2,ALS (in words),[2]; infusion for 21 h,increases
same,IGF-I (in words),[2]; infusion for 21 h,increases
same,IGFBP-3 (in words),[2]; infusion for 21 h,increases
same,increase in pulsatile GH secretion,[2]; infusion for 21 h,> 6 fold
